Results: patent publication US20190091272A1, “ANTI-CANCER DRUG COMPOSITION INCLUDING GANODERMA EXTRACT AND AMPHOTERICIN B” (Taiwan Indigena Botanica Co., Ltd., priority 2015, published 2019)

Test system: human liver carcinoma cell lines including Hep G2, Hep 3G and Hep 5J
Test: Summary of Examples 1 and 2 over the three liver carcinoma cell lines
Format: cell-based
Procedure: This example used human liver carcinoma cell lines including Hep G2, Hep 3G and Hep 5J for experiments, and the cells were cultured in 96-well plates. The experiments were divided into two groups including a pre-treatment group and a co-treatment group. The cells in the pre-treatment group were pre-treated with the Ganoderma ethanolic extracts for 24 hours and then treated with the amphotericin B for 48 hours, while the cells in the co-treatment group were co-treated with the Ganoderma ethanolic extracts and the amphotericin B together for 48 hours.
In the pre-treatment group, the cells were pre-treated with the Ganoderma ethanolic extracts at concentrations of 0, 1, 2.5 and 5 mg/ml for 24 hours, and then treated with the amphotericin B at concentrations between 0-80 μM for 48 hours, followed by MTT assay. In the co-treatment group, the cells were co-treated with the Ganoderma ethanolic extracts at concentrations of 0, 1, 2.5 and 5 mg/ml and the amphotericin B at concentrations between 0-80 μM for 48 hours, followed by MTT assay. The MTT solution (3-(4,5-Dimethylthiazol-2-yl)-2,5-diphenyltetrazolium bromide) was added to each well, and the plates were further incubated for 45-60 minutes. The cell culture medium was then removed and replaced by DMSO (dimethyl sulfoxide). Subsequently, the optical density (OD) was measured at 550 nm. […]

C[C@@H]1[C@H](O)[C@@H](C)/C=C/C=C/C=C/C=C/C=C/C=C/C=C/[C@H](O[C@@H]2O[C@H](C)[C@@H](O)[C@H](N)[C@@H]2O)C[C@@H]2O[C@](O)(C[C@@H](O)C[C@@H](O)[C@H](O)CC[C@@H](O)C[C@@H](O)CC(=O)O[C@H]1C)C[C@H](O)[C@H]2C(=O)O [amphotericin B]
effective dose of the amphotericin B (after pre-treatment with the Ganoderma ethanolic extract, from the examples): at least 3 μM
safe and effective dose of the amphotericin B (based on the results from Examples 1 and 2): 3 to 10 µM
